# “Also recorded” adds a separate entry of the source.
# Test system: NCI-60 cell lines
# Format: cell-based, human
Substance,Cell Line with which the peptide (and its tripeptide motif) is associated,Cell Line the peptide is associated with (peptide recovered from phage library selection on this NCI-60 cell line),Cell Line (NCI-60 cell line the peptide is associated with),Cell Line (NCI-60 cell line the peptide and its motif are associated with)
GGVAGVS,A549-Lung,–,–,–
IGAASWF,–,MCF-7 Breast,–,–
TVGSGCL,–,–,HCT-116 Colon,–
GPSFDAK,–,RXF393 Renal,–,–
RAMGGAG,RPMI-8226-Leukemia,–,–,–
RSSIDVG,–,NCI/ADR-RES Breast,–,–
AGGFGVL,–,–,–,IGROV1 Ovarian
SRLSYRG,RPMI-8226-Leukemia,–,–,–
LWFELVS,–,MCF-7 Breast,–,–
VSGDGGS,–,–,SNB-75 CNS,–
PGVLREP,–,A498 Renal,–,–
NAVRGSA,–,–,HCT-116 Colon,–
WSGVSRL,–,–,HCT-15 Colon,–
RDGVRVG,–,–,LOX-IMVI Melanoma,–
TLTAAVF,–,–,–,UACC 257 Melanoma
FSLVSFV,–,–,–,SK-MEL-2 Melanoma
ESATGVS,–,MDA-MB-231 Breast,–,–
LAQGRLA,–,–,HT-29 Colon,–
WRLAGLG,–,NCI/ADR-RES Breast,–,–
ALARGSG,–,–,–,SK-MEL-2 Melanoma
GSGSSSR,–,TK-10 Renal,–,–
AGSMMEF,–,–,–,OVCAR-3 Ovarian

Substance,Cell Line with which the peptide (and its tripeptide motif) is associated,Cell Line the peptide is associated with (peptide recovered from phage library selection on this NCI-60 cell line),Cell Line (NCI-60 cell line the peptide is associated with),Cell Line (NCI-60 cell line the peptide and its motif are associated with)
SGSVVQR,–,–,LOX-IMVI Melanoma,–
GRVVGEA,H322-Lung,–,–,–
SRSGRLN,–,–,–,SK-MEL-2 Melanoma
SFWWLRS,–,TK-10 Renal,–,–
VGSVVGR,Hop-92-Lung,–,–,–
LGSSGLR,–,RXF393 Renal,–,–
RMLVSSF,–,–,–,UACC 257 Melanoma
VMWVARG,–,–,KM-12C Colon,–
WDGSSVS,–,SN12C Renal,–,–
KRAVGRM,–,–,–,A498 Renal
GVLHSIA,K-562-Leukemia,–,–,–
YWQHRVS,–,–,HCT-116 Colon,–
GRPLGGR,–,–,HCT-15 Colon,–
LVYSGRL,–,–,SW620-Colon,–
FPARGED,–,A498 Renal,–,–
SKYNLRS,–,–,HT-29 Colon,–
INWAGLS,Hop-92-Lung,–,–,–
VGLRVRF,–,BT-549 Breast,–,–
SWGSGGS,Hop-92-Lung,–,–,–
AAKTLLS,–,–,SW620-Colon,–
LRAVEFL,–,–,MALME-3M Melanoma,–
GSSHDAL,–,–,SNB-19 CNS; also recorded: SF-539 CNS,–

Substance,Cell Line with which the peptide (and its tripeptide motif) is associated,Cell Line the peptide is associated with (peptide recovered from phage library selection on this NCI-60 cell line),Cell Line (NCI-60 cell line the peptide is associated with),Cell Line (NCI-60 cell line the peptide and its motif are associated with)
RRDAGRM,–,–,SF-295 CNS,–
PRSSGPM,–,RXF393 Renal,–,–
LVGRGVR,–,–,SF-268 CNS,–
RNPGRLA,–,–,HT-29 Colon,–
GDRAVGL,–,UO31 Renal,–,–
WQVALRS,–,–,HT-29 Colon,–
FRALGGL,–,–,SNB-75 CNS,–
GLRLGVT,–,–,HT-29 Colon,–
AASGSYY,–,–,HT-29 Colon,–
EFAVAGR,SR Leukemia,–,–,–
FHIWGGR,–,MDA-MB-231 Breast,–,–
LPRRAVF,–,–,–,DU-145 Prostate
MRGVARK,–,–,–,A498 Renal
DVIARGW,–,–,–,UACC 257 Melanoma
ALVSVAG,–,–,SF-295 CNS,–
REAERVS,H322-Lung,–,–,–
GYARGSG,–,RXF393 Renal,–,–
HAGLLVV,–,TK-10 Renal,–,–
PPGASLY,–,–,–,M14 Melanoma
PVRRVSS,–,HS 578 T Breast,–,–
RGAVAFE,SR Leukemia,–,–,–
RLAVSGY,H522-Lung,–,–,–

Substance,Cell Line with which the peptide (and its tripeptide motif) is associated,Cell Line the peptide is associated with (peptide recovered from phage library selection on this NCI-60 cell line),Cell Line (NCI-60 cell line the peptide is associated with),Cell Line (NCI-60 cell line the peptide and its motif are associated with)
SLRGSEG,Hop-92-Lung,–,–,–
GSSTLQW,–,TK-10 Renal,–,–
SGRVFRF,–,HS 578 T Breast,–,–
IHRGVWG,–,–,–,786-0 Renal
QVRRGVV,–,–,HT-29 Colon,–
GGLEQDG,–,SN12C Renal,–,–
YVGLVVS,SR Leukemia,–,–,–
LAGGWGS,–,–,SF-295 CNS,–
RGAVREM,–,SN12C Renal,–,–
RGVVSAK,Hop-92-Lung,–,–,–
QRYHLRS,–,CAIK-1 Renal,–,–
GLLSSFS,–,–,–,M14 Melanoma
FVPRGSY,–,–,–,OVCAR-4 Ovarian
GGAGSRR,–,UO31 Renal,–,–
RALGAAS,–,–,–,SK-OV-3-3 Ovarian
CRRSSLL,–,–,–,SK-MEL-2 Melanoma
GATGVSS,–,–,–,OVCAR-8 Ovarian
DGGLNDC,–,–,–,OVCAR-5 Ovarian
RAVEMGT,H460-Lung,–,–,–
GVSGLSR,–,–,–,DU-145 Prostate
ASGLVVT,–,–,SNB-75 CNS,–
HVRSSYA,–,HS 578 T Breast,–,–

Substance,Cell Line with which the peptide (and its tripeptide motif) is associated,Cell Line the peptide is associated with (peptide recovered from phage library selection on this NCI-60 cell line),Cell Line (NCI-60 cell line the peptide is associated with),Cell Line (NCI-60 cell line the peptide and its motif are associated with)
KSGLRPA,EKVX-Lung,–,–,–
GVSIRQL,H460-Lung,–,–,–
SDVSGSS,H322-Lung,–,–,–
HAGSRAS,–,–,–,IGROV1 Ovarian
LVPLVSG,–,–,–,SK-OV-3-3 Ovarian
HGGPGAV,–,–,LOX-IMVI Melanoma,–
LERAVRT,–,–,HT-29 Colon,–
TRDGVRW,–,RXF393 Renal,–,–
LRLSSIP,CCRF-CEM Leukemia,–,–,–
RVSNEAL,–,–,–,SK-OV-3-3 Ovarian
GTGAAVF,–,RXF393 Renal,–,–
RGVGWAK,H322-Lung,–,–,–
AEGGSGH,A549-Lung,–,–,–
GESGRLS,Hop-92-Lung,–,–,–
ADWGVLE,–,–,SNB-75 CNS,–
RSSIAPS,Molt-4-Leukemia,–,–,–
SGGDGSV,–,–,SNB-75 CNS,–
RASCVWR,–,–,–,DU-145 Prostate
GRLSFGV,–,ACHN Renal,–,–
SRYWLRS,H522-Lung,–,–,–
SRLSYCN,–,–,–,OVCAR-4 Ovarian
GGRCGAE,–,BT-549 Breast,–,–

Substance,Cell Line with which the peptide (and its tripeptide motif) is associated,Cell Line the peptide is associated with (peptide recovered from phage library selection on this NCI-60 cell line),Cell Line (NCI-60 cell line the peptide is associated with),Cell Line (NCI-60 cell line the peptide and its motif are associated with)
SSSLAGS,–,UO31 Renal,–,–
TLGSVRV,–,–,–,SK-MEL-5 Melanoma
VHKRAVL,–,UO31 Renal,–,–
KGDGSVR,–,–,–,SK-OV-3-3 Ovarian
GLGLRLG,–,–,–,OVCAR-8 Ovarian
PVFRGGS,–,MDA-MB-231 Breast,–,–
RPKLRSV,–,–,MALME-3M Melanoma,–
SYGLVLP,Hop-92-Lung,–,–,–
FGLRSRL,SR Leukemia,–,–,–
RVSGDGK,–,–,–,SK-OV-3-3 Ovarian
LTAAVMV,–,–,SNB-75 CNS,–
RVRGVLD,–,BT-549 Breast,–,–
LGVRASP,–,BT-549 Breast,–,–
RREGLRS,H522-Lung,–,–,OVCAR-3 Ovarian
GAYRLVS,CCRF-CEM Leukemia,–,–,–
PLQRGSG,–,BT-549 Breast,–,–
CQGLVLQ,K-562-Leukemia,–,–,–
RGRGSTL,–,MDA-MB-435-Breast,–,–
GRVTWRS,–,–,–,OVCAR-5 Ovarian
DAGRTID,Hop-62-Lung,–,–,–
LVRSSGL,Hop-92-Lung,–,–,–

# — US7781565B2 (priority 2006, dated 2010)
